Results taken from patent publication US20150105252A1, “SUBSTITUTED PYRAZOLES AS HERBICIDES” (E I DU PONT DE NEMOURS AND COMPANY, priority 2013, published 2015).

Legend:
crabgrass, large = experiment: Test A preemergence; format: in vivo, Digitaria sanguinalis; conditions: preemergence; for Crabgrass, Large plant response rating (0 to 100 scale): 125 g ai/ha, visual injury approx. 10 days after treatment; for Crabgrass, Large plant response rating: 500 g ai/ha, visual injury after approx. 10 days, 0 to 100 scale (0 no effect, 100 complete control)
Summary of the method: (§1)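 After sowing in a sand–loam mix, pots received compound preemergence by directed soil spray, or postemergence once plants reached the one- to two-leaf stage (2–10 cm). Formulation contained surfactant in a non-phytotoxic solvent. Injury was scored visually after ~10 greenhouse days, 0–100 scale.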

wheat = experiment: Test A preemergence; format: in vivo, Triticum aestivum; conditions: preemergence; for Wheat plant response rating (0 to 100 scale): 125 g ai/ha, visual injury approx. 10 days after treatment; for Wheat plant response rating: 500 g ai/ha, visual injury after approx. 10 days, 0 to 100 scale (0 no effect, 100 complete control)
Summary of the method: as §1

morningglory = experiment: Test A postemergence; format: in vivo, Ipomoea spp.; conditions: Postemergence
Summary of the method: as §1

ragweed [1] = experiment: Test C preemergence; format: in vivo, Ambrosia elation; conditions: preemergence; for Plant response rating, Ragweed: 125 g ai/ha, scale 0 to 100, 0 = no effect, 100 = complete control
Summary of the method: (§2)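 Postemergence values come from plants sprayed at the 1- to 4-leaf stage (2–18 cm) in peat moss–vermiculite medium; preemergence values from seeds treated in a loam–sand blend. Both evaluated visually against controls after 13–15 greenhouse days, scale 0–100.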

soybean [2] = experiment: Test C preemergence; format: in vivo, Glycine max; conditions: preemergence; for Plant response rating, Soybean: 125 g ai/ha, scale 0 to 100, 0 = no effect, 100 = complete control
Summary of the method: as §2

barnyardgrass = experiment: Test C preemergence; format: in vivo, Echinochloa crus-galli; conditions: preemergence; for Plant response rating, Barnyardgrass: 125 g ai/ha, scale 0 to 100, 0 = no effect, 100 = complete control
Summary of the method: as §2

waterhemp = experiment: Test C preemergence; format: in vivo, Amaranthus rudis; conditions: preemergence; for Plant response rating, Waterhemp: 125 g ai/ha, scale 0 to 100, 0 = no effect, 100 = complete control
Summary of the method: as §2

velvetleaf = experiment: Test C preemergence; format: in vivo, Abutilon theophrasti; conditions: preemergence; for Plant response rating, Velvetleaf: 125 g ai/ha, scale 0 to 100, 0 = no effect, 100 = complete control
Summary of the method: as §2

ryegrass, Italian = experiment: Test C postemergence; format: in vivo, Lolium multiflorum; conditions: postemergence
Summary of the method: as §2

corn = experiment: Test C postemergence; format: in vivo, Zea mays; conditions: for Plant response rating (scale of 0 to 100 where 0 is no effect and 100 is complete control), Corn: Postemergence, 31 g ai/ha, visually evaluated after 13 to 15 days; for Corn plant response rating / Plant response rating, Corn: postemergence; for Corn plant response rating: 62 g ai/ha, scale 0 to 100
Summary of the method: as §2

foxtail, giant = experiment: Test C postemergence; format: in vivo, Setaria faberii; conditions: for Plant response rating (scale of 0 to 100 where 0 is no effect and 100 is complete control), Foxtail, Giant: Postemergence, 31 g ai/ha, visually evaluated after 13 to 15 days; for Foxtail, Giant plant response rating / Plant response rating, Foxtail, Giant: postemergence; for Foxtail, Giant plant response rating: 62 g ai/ha, scale 0 to 100
Summary of the method: as §2

johnsongrass = experiment: Test C postemergence; format: in vivo, Sorghum halepense; conditions: for Plant response rating (scale of 0 to 100 where 0 is no effect and 100 is complete control), Johnsongrass: Postemergence, 31 g ai/ha, visually evaluated after 13 to 15 days; for Johnsongrass plant response rating / Plant response rating, Johnsongrass: postemergence; for Johnsongrass plant response rating: 62 g ai/ha, scale 0 to 100
Summary of the method: as §2

nutsedge, yellow = experiment: Test C postemergence; format: in vivo, Cyperus esculentus; conditions: for Plant response rating (scale of 0 to 100 where 0 is no effect and 100 is complete control), Nutsedge, Yellow: Postemergence, 31 g ai/ha, visually evaluated after 13 to 15 days; for Nutsedge, Yellow plant response rating / Plant response rating, Nutsedge, Yellow: postemergence; for Nutsedge, Yellow plant response rating: 62 g ai/ha, scale 0 to 100
Summary of the method: as §2

ragweed [3] = experiment: Test C postemergence; format: in vivo, Ambrosia elation; conditions: postemergence
Summary of the method: as §2

soybean [4] = experiment: Test C postemergence; format: in vivo, Glycine max; conditions: postemergence; for Plant response rating, Soybean: 250 g ai/ha, scale 0 to 100 (0 no effect, 100 complete control); for Soybean plant response rating: 125 g ai/ha, scale 0 to 100, 0 no effect, 100 complete control
Summary of the method: as §2

oilseed rape = experiment: Test C postemergence; format: in vivo, Brassica napus; conditions: postemergence; for Oilseed Rape plant response rating: 62 g ai/ha, scale 0 to 100
Summary of the method: as §2

[5] = 125 g ai/ha, 0 to 100 scale, 0 no effect, 100 complete control
[6] = 500 g ai/ha, 0 to 100 scale (0 no effect, 100 complete control)
[7] = 31 g ai/ha, visual rating, scale 0 to 100 (0 no effect, 100 complete control), 13 to 15 days
[8] = 62 g ai/ha, scale 0 to 100 (0 no effect, 100 complete control), 13 to 15 days
[9] = 250 g ai/ha, scale 0 to 100, 0 is no effect, 100 is complete control
[10] = 250 g ai/ha, scale 0 to 100 (0 no effect, 100 complete control)
[11] = 125 g ai/ha, scale 0 to 100, 0 no effect, 100 complete control

For CCNC(=O)c1cc(CC)n(Cc2ccnc(C(F)(F)F)c2)n1 [Compound 196], which “Crabgrass, Large plant response rating (0 to 100 scale)” value (crabgrass, large) is on record?
Its value is 100.

What about the “Crabgrass, Large plant response rating” value (crabgrass, large) of the same molecule?
The value was 100.

And the “Wheat plant response rating (0 to 100 scale)” value (wheat)?
Its value is 20.

And the “Wheat plant response rating” value (wheat)?
The value was 100.

And the “Morningglory plant response rating” value (morningglory; [5])?
Its value is 90.

What about the “Morningglory plant response rating” value (morningglory; [6]) of the same molecule?
The value was 100.

And the “Ragweed plant response rating” value (ragweed [1]; [7])?
The value was 85.

And the “Ragweed plant response rating” value (ragweed [1]; [8])?
Its value is 90.

What about the “Plant response rating, Ragweed” value (ragweed [1]; 13 to 15 days) of the same molecule?
Its value is 98.

What about the “Ragweed plant response rating” value (ragweed [1]; [9]) of the same molecule?
Its value is 98.

What about the “Soybean plant response rating” value (soybean [2]; [7]) of the same molecule?
Its value is 40.

And the “Soybean plant response rating” value (soybean [2]; [8])?
The value was 55.

What about the “Plant response rating, Soybean” value (soybean [2]; 13 to 15 days) of the same molecule?
Its value is 90.

What about the “Soybean plant response rating” value (soybean [2]; [9]) of the same molecule?
Its value is 98.

What about the “Barnyardgrass plant response rating” value (barnyardgrass; [7]) of the same molecule?
The value was 98.

And the “Barnyardgrass plant response rating” value (barnyardgrass; [8])?
Its value is 100.

What about the “Plant response rating, Barnyardgrass” value (barnyardgrass; 13 to 15 days) of the same molecule?
Its value is 100.

What about the “Barnyardgrass plant response rating” value (barnyardgrass; [9]) of the same molecule?
The value was 100.

What about the “Waterhemp plant response rating” value (waterhemp; [7]) of the same molecule?
Its value is 100.

What about the “Waterhemp plant response rating” value (waterhemp; [8]) of the same molecule?
Its value is 100.

And the “Plant response rating, Waterhemp” value (waterhemp; 13 to 15 days)?
The value was 100.

What about the “Waterhemp plant response rating” value (waterhemp; [9]) of the same molecule?
Its value is 100.

And the “Velvetleaf plant response rating” value (velvetleaf; [7])?
The value was 40.

And the “Velvetleaf plant response rating” value (velvetleaf; [8])?
The value was 100.

And the “Plant response rating, Velvetleaf” value (velvetleaf; 13 to 15 days)?
Its value is 100.

And the “Velvetleaf plant response rating” value (velvetleaf; [9])?
Its value is 100.

And the “Plant response rating, Ryegrass, Italian” value (ryegrass, Italian; [10])?
The value was 5.

And the “Plant response rating, Ryegrass, Italian” value (ryegrass, Italian; [11])?
The value was 5.

And the “Plant response rating (scale of 0 to 100 where 0 is no effect and 100 is complete control), Corn” value (corn)?
Its value is 5.

And the “Corn plant response rating” value (corn)?
Its value is 5.

And the “Plant response rating, Corn” value (corn; [10])?
Its value is 15.

And the “Plant response rating, Corn” value (corn; [11])?
The value was 5.

What about the “Plant response rating (scale of 0 to 100 where 0 is no effect and 100 is complete control), Foxtail, Giant” value (foxtail, giant) of the same molecule?
Its value is 5.

And the “Foxtail, Giant plant response rating” value (foxtail, giant)?
Its value is 25.

What about the “Plant response rating, Foxtail, Giant” value (foxtail, giant; [10]) of the same molecule?
The value was 20.

What about the “Plant response rating, Foxtail, Giant” value (foxtail, giant; [11]) of the same molecule?
Its value is 20.

And the “Plant response rating (scale of 0 to 100 where 0 is no effect and 100 is complete control), Johnsongrass” value (johnsongrass)?
Its value is 0.

What about the “Johnsongrass plant response rating” value (johnsongrass) of the same molecule?
Its value is 5.

And the “Plant response rating, Johnsongrass” value (johnsongrass; [10])?
Its value is 15.

And the “Plant response rating, Johnsongrass” value (johnsongrass; [11])?
The value was 10.

And the “Plant response rating (scale of 0 to 100 where 0 is no effect and 100 is complete control), Nutsedge, Yellow” value (nutsedge, yellow)?
The value was 5.

What about the “Nutsedge, Yellow plant response rating” value (nutsedge, yellow) of the same molecule?
Its value is 0.

And the “Plant response rating, Nutsedge, Yellow” value (nutsedge, yellow; [10])?
The value was 10.

And the “Plant response rating, Nutsedge, Yellow” value (nutsedge, yellow; [11])?
The value was 5.

What about the “Plant response rating, Ragweed” value (ragweed [3]; [10]) of the same molecule?
Its value is 40.

What about the “Plant response rating, Ragweed” value (ragweed [3]; [11]) of the same molecule?
Its value is 15.

And the “Plant response rating, Soybean” value (soybean [4])?
The value was 95.

And the “Soybean plant response rating” value (soybean [4])?
Its value is 80.

And the “Oilseed Rape plant response rating” value (oilseed rape)?
The value was 5.

And the “Plant response rating, Oilseed Rape” value (oilseed rape; [10])?
The value was 70.

And the “Plant response rating, Oilseed Rape” value (oilseed rape; [11])?
The value was 10.

What does the source list for Cc1cc(C(=O)NC(C)C)nn1Cc1ccnc(C(F)(F)F)c1 [Compound 197]?
Crabgrass, Large plant response rating (0 to 100 scale) (crabgrass, large): 100; Crabgrass, Large plant response rating (crabgrass, large): 100; Wheat plant response rating (0 to 100 scale) (wheat): 0; Wheat plant response rating (wheat): 50; Morningglory plant response rating (morningglory; [5]): 80; Morningglory plant response rating (morningglory; [6]): 100; Ragweed plant response rating (ragweed [1]; [7]): 60; Ragweed plant response rating (ragweed [1]; [8]): 85; Plant response rating, Ragweed (ragweed [1]; 13 to 15 days): 95; Ragweed plant response rating (ragweed [1]; [9]): 98; Soybean plant response rating (soybean [2]; [7]): 45; Soybean plant response rating (soybean [2]; [8]): 80; Plant response rating, Soybean (soybean [2]; 13 to 15 days): 98; Soybean plant response rating (soybean [2]; [9]): 98; Barnyardgrass plant response rating (barnyardgrass; [7]): 65; Barnyardgrass plant response rating (barnyardgrass; [8]): 98; Plant response rating, Barnyardgrass (barnyardgrass; 13 to 15 days): 100; Barnyardgrass plant response rating (barnyardgrass; [9]): 100; Waterhemp plant response rating (waterhemp; [7]): 100; Waterhemp plant response rating (waterhemp; [8]): 100; Plant response rating, Waterhemp (waterhemp; 13 to 15 days): 100; Waterhemp plant response rating (waterhemp; [9]): 100; Velvetleaf plant response rating (velvetleaf; [7]): 25; Velvetleaf plant response rating (velvetleaf; [8]): 90; Plant response rating, Velvetleaf (velvetleaf; 13 to 15 days): 65; Velvetleaf plant response rating (velvetleaf; [9]): 100; Plant response rating, Ryegrass, Italian (ryegrass, Italian; [10]): 5; Plant response rating, Ryegrass, Italian (ryegrass, Italian; [11]): 0; Plant response rating (scale of 0 to 100 where 0 is no effect and 100 is complete control), Corn (corn): 5; Corn plant response rating (corn): 5; Plant response rating, Corn (corn; [10]): 10; Plant response rating, Corn (corn; [11]): 5; Plant response rating (scale of 0 to 100 where 0 is no effect and 100 is complete control), Foxtail, Giant (foxtail, giant): 0; Foxtail, Giant plant response rating (foxtail, giant): 0; Plant response rating, Foxtail, Giant (foxtail, giant; [10]): 10; Plant response rating, Foxtail, Giant (foxtail, giant; [11]): 5; Plant response rating (scale of 0 to 100 where 0 is no effect and 100 is complete control), Johnsongrass (johnsongrass): 0; Johnsongrass plant response rating (johnsongrass): 65; Plant response rating, Johnsongrass (johnsongrass; [10]): 5; Plant response rating, Johnsongrass (johnsongrass; [11]): 0; Plant response rating (scale of 0 to 100 where 0 is no effect and 100 is complete control), Nutsedge, Yellow (nutsedge, yellow): 0; Nutsedge, Yellow plant response rating (nutsedge, yellow): 5; Plant response rating, Nutsedge, Yellow (nutsedge, yellow; [10]): 5; Plant response rating, Nutsedge, Yellow (nutsedge, yellow; [11]): 10; Plant response rating, Ragweed (ragweed [3]; [10]): 55; Plant response rating, Ragweed (ragweed [3]; [11]): 40; Plant response rating, Soybean (soybean [4]): 95; Soybean plant response rating (soybean [4]): 90; Oilseed Rape plant response rating (oilseed rape): 5; Plant response rating, Oilseed Rape (oilseed rape; [10]): 10; Plant response rating, Oilseed Rape (oilseed rape; [11]): 20
